According to US7643943B2, “Methods for monitoring drug activities in vivo” (Wyeth LLC, priority 2003, dated 2010):

Legend:
clinical [1] = details: human, in vivo, iv
Source text: The pharmacokinetics of CCI-779 is being studied in patients with cancer receiving CCI-779 either alone or in combination with other chemotherapeutic agents following intravenous administration. Intravenous dosage schedules previously investigated include a cyclical schedule (daily for 5 days every two weeks) and a once-weekly regimen. […] The following examples evaluated the safety, efficacy, and pharmacokinetic/pharmacodynamic relationship to clinical response of three doses of CCI-779, when administered to patients with advanced, refractory renal cell cancer (RCC).

clinical [2] = details: human, in vivo
Description: (§1) In a randomized, double-blind, multicenter trial, once-weekly intravenous doses of 25-, 75-, or 250-mg of CCI-779 were administered to patients with advanced renal cancer that were either previously treated, or untreated and not appropriate candidates for high dose interlukin-2 therapy. Whole blood for CCI-779 and metabolite concentrations was drawn for population pharmacokinetic analysis, and Bayesian-predicted area under the concentration-time curves for parent drug (AUC), parent plus metabolite (AUCsum), and cumulative AUC and AUCsum were derived.
(§2) For CCI-779 clearance, factors for dose, attenuation of exposure with multiple-dose, and effect of body surface area were included.
(§3) The following examples were based on a randomized, double-blind, multicenter, outpatient phase 2 study of CCI-779 administered by 30 minute intravenous infusion (via an automatic dispensing pump) in patients with advanced RCC. Eligible patients were randomly assigned to treatment in a 1:1:1 ratio to receive 25 mg, 75 mg, or 250 mg of CCI-779 weekly until evidence of disease progression.
(§4) Full pharmacokinetic profiling was planned in a subset of patients, with remaining patients to provide sparse sampling.
(§5) The bioanalytical method for CCI-779 was performed using whole blood in a liquid chromatography/tandem mass spectrometry (LC/MS/MS) procedure with deuterated internal standard.
(§6) In order to characterize the pharmacokinetic profiles of patients providing sparse blood sampling, fully and sparsely sampled patient data were analyzed collectively using a population pharmacokinetic method and the NONMEM application (version 1.0, Revision 5.0 on Windows NT 4.0 computer with Pentium processor, NONMEM Project Group, University of California at San Francisco, Calif.). […] Data were therefore modeled separately and segregated by analyte into two separate data sets with dose, time/duration of administration, and demographic information. […] Construction of the NONMEM infile was performed using SAS (version 8.1) on a Sun Microsystems mainframe computer with Sun OS 5.8. […] In both cases, the model-derived value for AUC for a given patient and analyte were obtained from the quotient of CCI-779 Dose/Clearance (CL), in which CL was obtained from Bayesian estimation and the POSTHOC option of NONMEM.
(§7) During model building, an exponential error model was applied to the kinetic model.

[3] = human, in vivo
Description: as §1, §2, §3, §4, §5, §6, §7
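Throughout, for CL: population pharmacokinetic analysis in NONMEM of pooled full and sparse blood sampling from patients, exponential error on kinetic parameters, proportional residual error, bootstrap check over 1,000 resamples.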
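Throughout, for DE on CL (θ6), parameter estimate: population pharmacokinetic analysis in NONMEM of pooled full and sparse blood sampling from patients, exponential error on kinetic parameters, proportional residual error, bootstrap check over 1,000 resamples.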
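Throughout, for DE on V3 (θ7), parameter estimate: population pharmacokinetic analysis in NONMEM of pooled full and sparse blood sampling from patients, exponential error on kinetic parameters, proportional residual error, bootstrap check over 1,000 resamples.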
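Throughout, for Dose effect on CL (θ7), bootstrap sample median: population pharmacokinetic analysis in NONMEM of pooled full and sparse blood sampling from patients, exponential error on kinetic parameters, proportional residual error, bootstrap check over 1,000 resamples.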

half-life (clinical [1]): 2.5 to 2.92 days
clearance (clinical [2]): 33.2 mL/min
DE on CL (θ6), parameter estimate [3]: 0.422
DE on V3 (θ7), parameter estimate [3]: 0.302
Dose effect on CL (θ7), bootstrap sample median [3]: 0.412
Dose effect on V3 (θ8), bootstrap sample median [3]: 0.231
HCT effect on V3 (θ8), parameter estimate [3]: 0.719
Hematocrit effect on V3 (θ9), bootstrap sample median [3]: 0.768
Inter-Patient Variability % on CL [3]: 63.7%
Inter-Patient Variability % on Ka [3]: 34.6%
Inter-Patient Variability % on V2 [3]: 164%
Inter-Patient Variability % on V3 [3]: 22.8%
Intersubject variability on CL (ω^21), bootstrap sample median [3]: 0.545
Intersubject variability on CL (ω^21), final model parameter estimate [3]: 0.406
Intersubject variability on V2 (ω^22), bootstrap sample median [3]: 1.418
Intersubject variability on V2 (ω^22), final model parameter estimate [3]: 2.72
Intersubject variability on V3 (ω^23), final model parameter estimate [3]: 0.052
Intersubject variability on ka (ω^24), bootstrap sample median [3]: 0.316
Intersubject variability on ka (ω^24), final model parameter estimate [3]: 0.120
Ka (θ5), parameter estimate [3]: 0.087 h⁻¹
Proportional error (ε^2), bootstrap sample median [3]: 0.212
Proportional error (ε^2), final model parameter estimate [3]: 0.0543
Q (θ3), bootstrap sample median [3]: 27.5 L/h
V2 (θ2), bootstrap sample median [3]: 8.24 L
V3 (θ4), bootstrap sample median [3]: 11.6 L
V3 (θ4), parameter estimate [3]: 12.9 L
ka (θ5), bootstrap sample median [3]: 0.0616 h⁻¹
Q (θ3), parameter estimate ([3]; iv): 44.1 L/h
V2 (θ2), parameter estimate ([3]; iv): 10.4 L
CL (θ1), parameter estimate ([3]; iv, 250 mg): 2.05 L/h
Compound: CO[C@H]1C[C@@H]2CC[C@@H](C)[C@@](O)(O2)C(=O)C(=O)N2CCCC[C@H]2C(=O)O[C@H]([C@H](C)C[C@@H]2CC[C@@H](O)[C@H](OC)C2)CC(=O)[C@H](C)/C=C(\C)[C@@H](O)[C@@H](OC)C(=O)[C@H](C)C[C@H](C)/C=C/C=C/C=C/1C [sirolimus]
